Results as given in US20100160326A1, “PEST CONTROL AGENT CONTAINING NOVEL PYRIDYL-METHANAMINE DERIVATIVE OR SALT THEREOF” (ISHIHARA SANGYO KAISHA, LTD., priority 2006, published 2010).
Where two headings read alike, the source gives them in different places.

Columns and labels:
Assay type in all cases: in vivo
[1] = system: Common Cutworm (Spodoptera litura); experiment: Test on controlling effects against common cutworm (cabbage leaf disk dip); conditions: foliar
Description: Test on Controlling Effects Against Common Cutworm (Spodoptera litura)
Mortality (%)=(Number of dead larvae/number of released larvae)×100

[2] = system: Green Peach Aphid (Myzus persicae); experiment: Test on controlling effects against green peach aphid (leaf dip); conditions: foliar, 120 h
Description: Test on Controlling Effects Against Green Peach Aphid (Myzus persicae)
Mortality (%)=(1−(number of survived insects/number of treated insects))×100

[3] = system: Two-Spotted Spider Mite (Tetranychus urticae); experiment: Test on adults of two-spotted spider mite (kidney bean leaf dip); conditions: foliar, adults dipped together with kidney bean leaf, second or third day after the treatment, 25° C.
Description: Test on Adults of Two-Spotted Spider Mite (Tetranychus urticae)
Mortality of adults (%)=(Number of dead two-spotted spider mites/Number of treated two-spotted spider mites)×100

[4] = 800 ppm, cabbage leaf disk dipped about 10 seconds, second-third instar larvae, fifth day after the release, 25° C., read-out: mortality
[5] = 800 ppm, Japanese radish leaf dipped about 10 seconds, first instar nymphs, counted 5 days after the treatment, 25° C., read-out: mortality

Compound	mortality at 800 ppm [1]	mortality at 800 ppm ([2]; in Raphanus sativus)	mortality at 800 ppm [1, 4]	mortality at 800 ppm [3]	mortality at 800 ppm [2, 5]
O=[N+]([O-])c1cnc(N(Cc2ccccn2)Cc2ccccn2)cc1C(F)(F)F [Compound No. 9, N,N-BIS(2-PYRIDYLMETHYL)-5-NITRO-4-(TRIFLUOROMETHYL)-2-PYRIDYLAMINE]	≥ 90%	≥ 90%			
N#Cc1c(C(F)(F)F)cc(N(Cc2ccccn2)Cc2ccccn2)nc1Cl [Compound No. 24, N,N-bis(2-pyridylmethyl)-6-chloro-5-cyano-4-(trifluoromethyl)-2-pyridylamine]	≥ 90%	≥ 90%			
C=CCN(Cc1ccccn1)c1cc(C(F)(F)F)c(Cl)c(Cl)n1 [Compound No. 55, N-ALLYL-N-(2-PYRIDYLMETHYL)-5,6-DICHLORO-4-(TRIFLUOROMETHYL)-2-PYRIDYLAMINE]			≥ 90%	≥ 90%	≥ 90%
FC(F)(F)c1cc(Br)nc(N(Cc2ccccn2)Cc2ccccn2)c1 [Compound No. 90, N,N-BIS(2-PYRIDYLMETHYL)-6-BROMO-4-(TRIFLUOROMETHYL)-2-PYRIDYLAMINE]				≥ 90%	≥ 90%
FC(F)(F)c1cc(N(Cc2ccccn2)Cc2ccccn2)nc(Br)c1Cl [Compound No. 92, N,N-BIS(2-PYRIDYLMETHYL)-6-BROMO-5-CHLORO-4-(TRIFLUOROMETHYL)-2-PYRIDYLAMINE]			≥ 90%	≥ 90%	≥ 90%
C#Cc1nc(N(Cc2ccccn2)Cc2ccccn2)cc(C(F)(F)F)c1Cl [Compound No. 94, N,N-BIS(2-PYRIDYLMETHYL)-5-CHLORO-6-ETHYNYL-4-(TRIFLUOROMETHYL)-2-PYRIDYLAMINE]				≥ 90%	≥ 90%
CC(c1cccnc1)N(Cc1ccccn1)c1cc(C(F)(F)F)c(Cl)c(Cl)n1 (stereo not drawn) [Compound No. 97, N-(1-(3-PYRIDYL)ETHYL)-N-(2-PYRIDYLMETHYL)-5,6-DICHLORO-4-TRIFLUOROMETHYL-2-PYRIDYLAMINE]			≥ 90%	≥ 90%	≥ 90%
FC(F)(F)c1cc(N(Cc2ccccn2)Cc2ccccn2)nc(C(F)(F)F)c1Cl [Compound No. 103, N,N-BIS(2-PYRIDYLMETHYL)-5-CHLORO-4,6-BIS(TRIFLUOROMETHYL)-2-PYRIDYLAMINE]			≥ 90%	≥ 90%	≥ 90%
FC(F)(F)c1cc(NCc2ccccn2)nc(Cl)c1Cl [Compound No. 118, N-(2-PYRIDYLMETHYL)-5,6-DICHLORO-4-(TRIFLUOROMETHYL)-2-PYRIDYLAMINE]			≥ 90%	≥ 90%	≥ 90%
FC(F)(F)c1cc(Cl)nc(NCc2ccccn2)c1 [Compound No. 128, N-(2-PYRIDYLMETHYL)-6-CHLORO-4-(TRIFLUOROMETHYL)-2-PYRIDYLAMINE]					≥ 90%
